Here are results for eight compounds from US20140100184A1, “SELECTIVE INHIBITORS OF HISTONE […] DOT1L” (BAYLOR COLLEGE OF MEDICINE, priority 2012, published 2014).

Structures are written as SMILES. Structures can show the parent of a compound that is named as a salt. Where two headings read alike, the source gives them in different places. Bounds are passed on as bounds.

The Ki is a measure of affinity in units of concentration, obtained from inhibition or displacement. Low readings indicate a stronger hold on the target, high ones a looser hold on the target. What is called IC50 is the concentration that inhibits the measured activity by half. A word on the Km: it is the concentration of substrate that gives half-maximal velocity.

The target in test [1] is T1, G9a (Mus musculus, UniProt Q9Z148).
T1 sequence (Q9Z148 1-1263): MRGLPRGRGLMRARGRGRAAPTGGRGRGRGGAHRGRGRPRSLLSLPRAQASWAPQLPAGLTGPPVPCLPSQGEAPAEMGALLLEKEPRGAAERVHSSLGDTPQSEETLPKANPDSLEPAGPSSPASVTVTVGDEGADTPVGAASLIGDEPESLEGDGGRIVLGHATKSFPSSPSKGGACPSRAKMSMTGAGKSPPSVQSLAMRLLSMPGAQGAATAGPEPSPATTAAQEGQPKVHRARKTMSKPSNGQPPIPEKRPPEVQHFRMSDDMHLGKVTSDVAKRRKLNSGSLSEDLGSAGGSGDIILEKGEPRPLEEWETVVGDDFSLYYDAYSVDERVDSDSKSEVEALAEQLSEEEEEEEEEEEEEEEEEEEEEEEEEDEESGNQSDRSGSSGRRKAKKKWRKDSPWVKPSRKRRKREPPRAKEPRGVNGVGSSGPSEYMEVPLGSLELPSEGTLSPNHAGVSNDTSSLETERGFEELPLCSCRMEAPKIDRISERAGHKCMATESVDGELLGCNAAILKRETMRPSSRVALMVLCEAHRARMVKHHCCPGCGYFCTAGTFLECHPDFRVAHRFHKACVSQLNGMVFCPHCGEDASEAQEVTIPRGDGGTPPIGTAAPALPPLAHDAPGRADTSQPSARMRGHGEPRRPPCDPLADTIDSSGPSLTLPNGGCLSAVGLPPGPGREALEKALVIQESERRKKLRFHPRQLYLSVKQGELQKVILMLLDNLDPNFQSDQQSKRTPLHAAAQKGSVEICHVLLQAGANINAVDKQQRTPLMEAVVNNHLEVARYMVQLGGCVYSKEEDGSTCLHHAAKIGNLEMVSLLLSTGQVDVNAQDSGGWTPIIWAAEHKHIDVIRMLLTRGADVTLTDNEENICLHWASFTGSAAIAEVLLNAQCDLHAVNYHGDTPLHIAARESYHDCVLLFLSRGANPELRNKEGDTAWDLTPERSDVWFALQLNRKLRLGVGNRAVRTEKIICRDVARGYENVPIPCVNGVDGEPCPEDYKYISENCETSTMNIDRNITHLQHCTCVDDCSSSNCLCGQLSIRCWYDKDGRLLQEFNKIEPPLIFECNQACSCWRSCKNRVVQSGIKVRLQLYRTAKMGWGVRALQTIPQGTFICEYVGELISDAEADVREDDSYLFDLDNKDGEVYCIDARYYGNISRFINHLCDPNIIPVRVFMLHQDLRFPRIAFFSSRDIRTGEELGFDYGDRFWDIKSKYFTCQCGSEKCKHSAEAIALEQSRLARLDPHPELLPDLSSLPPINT
The test is described as follows: Methyltransferase inhibition assay, G9a.

Test [2] has as its target T2, CARM1 (Homo sapiens, UniProt Q86X55).
T2 sequence (Q86X55 1-608): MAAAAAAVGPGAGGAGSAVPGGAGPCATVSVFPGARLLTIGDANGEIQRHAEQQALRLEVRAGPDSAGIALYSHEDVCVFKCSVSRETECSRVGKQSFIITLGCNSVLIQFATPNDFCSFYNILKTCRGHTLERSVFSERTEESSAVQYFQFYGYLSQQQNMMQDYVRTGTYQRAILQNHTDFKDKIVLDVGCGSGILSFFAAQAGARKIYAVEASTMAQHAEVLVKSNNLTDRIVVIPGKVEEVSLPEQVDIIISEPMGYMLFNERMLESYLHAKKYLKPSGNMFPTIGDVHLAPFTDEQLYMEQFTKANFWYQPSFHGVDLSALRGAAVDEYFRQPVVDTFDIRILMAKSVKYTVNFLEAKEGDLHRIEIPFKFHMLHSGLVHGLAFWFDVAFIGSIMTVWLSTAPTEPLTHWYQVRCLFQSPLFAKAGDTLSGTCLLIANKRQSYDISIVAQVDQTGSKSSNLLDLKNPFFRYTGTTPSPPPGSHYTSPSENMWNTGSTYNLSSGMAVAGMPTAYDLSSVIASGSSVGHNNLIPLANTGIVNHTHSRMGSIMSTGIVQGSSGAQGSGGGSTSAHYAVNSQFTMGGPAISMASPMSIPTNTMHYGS
Nature of the test: biochemical. Set-up: GST (from pGEX-KG vector) (N); made in house; host or cells: E. coli (as for hDOT1L); plasmid pGEX-KG-CARM1 from Dr. Qin Feng.

For test [3], the target named is T3, SUV39H1 (Homo sapiens, UniProt O43463).
T3 sequence (O43463 1-412): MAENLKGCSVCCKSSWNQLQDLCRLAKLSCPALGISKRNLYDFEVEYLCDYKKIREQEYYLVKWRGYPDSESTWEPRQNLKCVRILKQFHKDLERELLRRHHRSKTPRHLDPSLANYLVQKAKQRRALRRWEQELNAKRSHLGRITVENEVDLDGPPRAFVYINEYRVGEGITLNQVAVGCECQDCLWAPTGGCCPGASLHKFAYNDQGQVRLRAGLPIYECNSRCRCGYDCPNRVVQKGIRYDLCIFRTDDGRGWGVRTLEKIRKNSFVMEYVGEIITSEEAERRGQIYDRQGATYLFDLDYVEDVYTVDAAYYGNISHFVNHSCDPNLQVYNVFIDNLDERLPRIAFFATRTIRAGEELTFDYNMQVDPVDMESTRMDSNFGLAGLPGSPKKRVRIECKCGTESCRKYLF
Nature of the test: biochemical. Also on record: purchased BPS Biosciences (San Diego, Calif.).

The subject of test [4] is CARM1, PRMT1, G9a and SUV39H1. Nature of the test: Inhibition of other methyltransferases, summarised over the panel. To be noted: for activity against other methyltransferases: in words.
Test [5] has as its target T4, PRMT1 (Homo sapiens, UniProt Q99873). The test is described as follows: Methyltransferase inhibition assay, PRMT1. The class given is biochemical. Set-up: purchased BPS Biosciences (San Diego, Calif.).
Test [6] addresses T5, DOT1L (Homo sapiens, UniProt Q8TEK3).
T5 construct: Human DOT1 L(1-472) was expressed and purified as described in the literature; GST (N, cleaved yes); made in house; host or cells: E. coli BL21-CodonPlus (Agilent), plasmid pGEX-KG-hDOT1L(1-472)
Nature of the test: Determination of Km values of SAM and substrate, DOT1L. In kind it is biochemical. The following applies: 30° C., 10 min, pH=8.0.

In test [7] the target is T1, G9a. The following applies: read-out: Km value of SAM for G9a.
In test [8] the target is T2, CARM1. The following applies: read-out: Km value of SAM for CARM1.
For test [9], the target named is T5, DOT1L. The following applies: literature values; read-out: Km value for DOT1L, recent publication; cited from earlier work.
In test [10] the target is T3, SUV39H1. To be noted: read-out: Km value of SAM for SUV39H1.
Test [11] addresses T4, PRMT1. The following applies: read-out: Km value of SAM for PRMT1; from the literature; cited from earlier work.

T4 sequence (Q99873 whole entry): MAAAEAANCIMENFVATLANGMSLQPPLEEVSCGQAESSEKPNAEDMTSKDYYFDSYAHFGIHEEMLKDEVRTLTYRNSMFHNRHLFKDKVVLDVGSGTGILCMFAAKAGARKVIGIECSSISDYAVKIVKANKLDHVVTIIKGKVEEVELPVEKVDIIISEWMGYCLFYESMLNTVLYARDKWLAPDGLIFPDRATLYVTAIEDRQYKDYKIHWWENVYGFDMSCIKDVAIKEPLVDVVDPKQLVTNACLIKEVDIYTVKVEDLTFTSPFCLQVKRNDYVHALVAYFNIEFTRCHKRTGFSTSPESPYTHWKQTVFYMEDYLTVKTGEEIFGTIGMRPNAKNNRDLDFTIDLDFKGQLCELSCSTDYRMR
T5 sequence (Q8TEK3 1-472): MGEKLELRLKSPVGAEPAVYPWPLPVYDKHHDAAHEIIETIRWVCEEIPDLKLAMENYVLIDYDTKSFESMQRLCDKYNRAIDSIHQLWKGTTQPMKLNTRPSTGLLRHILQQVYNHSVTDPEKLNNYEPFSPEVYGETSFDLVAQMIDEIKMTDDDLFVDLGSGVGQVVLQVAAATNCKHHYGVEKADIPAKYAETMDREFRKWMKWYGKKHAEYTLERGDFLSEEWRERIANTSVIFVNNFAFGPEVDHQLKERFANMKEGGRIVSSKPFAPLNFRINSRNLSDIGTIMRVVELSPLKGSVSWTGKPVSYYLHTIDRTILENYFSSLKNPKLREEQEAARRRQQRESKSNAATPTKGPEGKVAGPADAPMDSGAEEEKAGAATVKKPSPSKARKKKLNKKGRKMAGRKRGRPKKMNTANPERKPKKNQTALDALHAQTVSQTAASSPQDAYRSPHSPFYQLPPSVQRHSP

`CNc1ncnc2c1ncn2[C@@H]1O[C@H](CSCC[C@H](N)C(=O)O)[C@@H](O)[C@H]1O` [Compound 1, S-(N^6-Methyl-adenosyl)-L-homocysteine] came in with a Ki on G9a [1] of over 100 µM.

On to `N[C@@H](CCSC[C@H]1O[C@@H](n2cnc3c(NCc4ccccc4)ncnc32)[C@H](O)[C@@H]1O)C(=O)O` [Compound 2, S-(N^6-Benzyl-adenosyl)-L-homocysteine], for which the Ki is 18 µM on CARM1 [2], over 100 µM at SUV39H1 [3] and over 100 µM at G9a [1]. Further, the “activity on G9a” value at G9a [1] was “inactive”.

With `Nc1ncnc2c1ncn2[C@@H]1O[C@H](CN(CCI)CC[C@H](N)C(=O)O)C(O)[C@@H]1O` (stereo partly drawn) [Compound 3, N^γ-(5′-Adenosyl)-N^γ-(2-iodoethyl)-(S)-2,4-diaminobutyric acid hydrochloride], the results for the concentration for half-maximal inhibition (IC50) at CARM1 [2], at SUV39H1 [3] and against G9a [1] were 46.4 µM, over 100 µM and over 100 µM, respectively.

As to `Nc1ncnc2c1ncn2[C@@H]1O[C@H](CN(CCI)CCC[C@H](N)C(=O)O)C(O)[C@@H]1O` (stereo partly drawn) [Compound 4, N^δ-(5′-Adenosyl)-N^δ-(2-iodoethyl)-(S)-2,5-diaminopentanoic-acid hydrochloride], the IC50 against CARM1 [2] was 1.1 µM; against SUV39H1 [3] it was over 100 µM; in [4] (read-out: IC50 values on other methyltransferases, span over the four enzymes), at least 1.1 µM; against G9a [1] it was 1.8 µM.

Turning to `CNc1ncnc2c1ncn2[C@@H]1O[C@H](CN(CCI)CCC[C@H](N)C(=O)O)C(O)[C@@H]1O` (stereo partly drawn) [Compound 5, N^δ-[5′-(N^6-Methyl-adenosyl)]-N^δ-(2-iodoethyl)-(S)-2,5-diaminopentanoic acid hydrochloride], the IC50 at CARM1 [2], against SUV39H1 [3] and on G9a [1] was over 100 µM throughout. Also, the “activity against other methyltransferases” value in test [4] is “essentially inactive”.

With `N[C@@H](CCCN(CCI)C[C@H]1O[C@@H](n2cnc3c(NCc4ccccc4)ncnc32)[C@@H](O)C1O)C(=O)O` (stereo partly drawn) [Compound 6, N^δ-[5′-(N^6-Benzyl-adenosyl)]-N^δ-(2-iodoethyl)-(S)-2,5-diaminopentanoic acid hydrochloride], the IC50 against CARM1 [2], on SUV39H1 [3], against G9a [1] and at PRMT1 [5] was over 100 µM each time. For the same compound, the “activity against other methyltransferases” value in test [4] was “essentially inactive”.

Compound `Nc1ncnc2c1ncn2[C@@H]1O[C@H](CSCC[C@H](N)C(=O)O)[C@@H](O)[C@H]1O` [SAH, S-(5′-adenosyl)-L-homocysteine, reference compound] registered an inhibitory constant (Ki) at G9a [1] of 0.57 µM.

In the case of `C[S+](CC[C@H](N)C(=O)O)C[C@H]1O[C@@H](n2cnc3c(N)ncnc32)[C@H](O)[C@@H]1O` (stereo partly drawn) [SAM, S-(5′-adenosyl)-L-methionine], the Michaelis constant (Km) was 0.76 µM at DOT1L [6]; 14.1 µM at G9a [7]; 1.6 µM on CARM1 [8]; 0.65 µM on DOT1L [9]; 27.9 µM at SUV39H1 [10]; 6 µM at PRMT1 [11].
